From patent publication US11628202B2, “Methods of reducing the need for surgery in patients suffering from benign prostatic hyperplasia” (Nymox Corporation, priority 2015, dated 2023)

Tested on: patients with moderate to severe symptomatic benign prostatic hyperplasia (BPH)
Test: Prospective assessment of need for subsequent invasive surgical intervention in BPH patients after NX-1207 injection
Format: in vivo, human
Protocol: 645 patients (Group #1) with moderate to severe symptomatic benign prostatic hyperplasia (BPH) were prospectively randomly assigned to blinded treatment with a single therapeutic injection of NX-1207 or placebo (saline vehicle alone), and their clinical BPH signs and symptoms were assessed at weekly, monthly, 3-monthly or longer intervals, for durations of a few months to 5.5 years. None of these patients had received any prior invasive surgical procedures to treat their BPH condition. A prospective assessment was undertaken of all available subjects>=2 years after baseline to determine the usefulness of NX-1207 treatment for the prevention or the delay of the need for surgical procedures (i.e., subsequent invasive surgical intervention) to treat the patient's BPH condition. Patients who received placebo and no drug treatment progressed to invasive surgical procedures within 2 years of baseline in 7.65% of patients.
352 patients (Group #2) who were randomized and blindly treated with NX-1207 or placebo at the same time as Group #1 in Example 1, in addition to the initial treatment, were given a second treatment injection of NX-1207 at intervals of >=1 year after the initial randomization. None of these patients had received any prior invasive surgical procedures to treat their BPH condition. A prospective assessment was undertaken of all available subjects>=2 years after baseline to determine the usefulness of NX-1207 treatment for the prevention or the delay of the need for invasive surgical intervention to treat the patient's BPH condition.
Patients in Examples 1 and 2 were characterized as to whether they had previous treatment failures with conventional oral medications (i.e. “treatment failure”) vs whether they had not received any previous conventional oral medications for their BPH condition (i.e., “treatment naïve”). A prospective assessment was undertaken of all available subjects>=2 years after baseline to determine the usefulness of NX-1207 treatment for the prevention or the delay of the need for subsequent invasive surgical intervention to treat the patient's BPH condition.
In the above examples, the amount of NX-1207 administered was 2.5 mg.

“IDQQVLSRIKLEIKRCL [NX-1207, NTP peptide injected once or twice (2.5 mg) in BPH patients]” was tested, and the “improvement in reducing the need for subsequent invasive surgical intervention, compared to patients who received a single injection” value (administered twice) was ~69%, the “improvement in reducing the need for subsequent invasive surgical intervention, compared to patients who received the placebo” value (administered twice) was ~80% and the “need for subsequent invasive surgical intervention” value (previous treatment failure subjects, assessed >=2 years after baseline, treatment failure placebo 10.4%) was 6.1%. For the same sequence, the “rate of need for invasive surgical procedures” value (second injection >=1 year after initial randomization, assessed >=2 years after baseline, p<0.001 vs placebo 7.65%, p<0.01 vs single injection 5.1%) was 1.6%, the “reduced rate of invasive surgical procedures within 2 years, compared to placebo” value (single therapeutic injection, 2.5 mg) was 33.3% and the “patients progressed to invasive surgical procedures within 2 years of baseline” value (single therapeutic injection, 2.5 mg, BPH patients, no prior invasive surgery, placebo 7.65%) was 5.1%. The “improvement in reducing the need for subsequent invasive surgical intervention, compared to patients who received the placebo” value (treatment naive patients) was ~88%, the “improvement in reducing the need for subsequent invasive surgical intervention, compared to treatment failure patients who received the NTP peptide” value (treatment naive patients) was ~85% and the “improvement in reducing the need for subsequent invasive surgical intervention, compared to treatment failure patients who received the placebo” value (treatment naive patients) was ~91%. The “need for invasive surgical procedures” value (treatment naïve patients, assessed >=2 years after baseline, placebo controls 7.5%, p<0.01) was 0.9%.
